Key:
[1] = molecular target: T1, Glycogen synthase kinase-3 beta (Homo sapiens, UniProt P49841); assay: Inhibition of recombinant GSK3-beta (unknown origin) assessed as decrease in phosphorylation of CREB at serine-129 in presence of ATP[gamma-33P] by filter binding assay
Target sequence in this assay (P49841 whole entry): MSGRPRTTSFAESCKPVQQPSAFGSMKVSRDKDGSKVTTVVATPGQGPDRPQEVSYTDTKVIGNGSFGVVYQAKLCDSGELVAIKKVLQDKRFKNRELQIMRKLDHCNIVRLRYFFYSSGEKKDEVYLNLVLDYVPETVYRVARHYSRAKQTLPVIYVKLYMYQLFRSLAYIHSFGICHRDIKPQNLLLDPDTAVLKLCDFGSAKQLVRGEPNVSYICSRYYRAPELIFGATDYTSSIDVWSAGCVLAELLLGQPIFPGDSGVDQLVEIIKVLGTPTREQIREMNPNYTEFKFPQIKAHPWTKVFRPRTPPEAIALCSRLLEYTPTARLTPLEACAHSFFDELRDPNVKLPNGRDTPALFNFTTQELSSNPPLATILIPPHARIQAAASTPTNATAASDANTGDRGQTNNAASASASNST

[2] = Inhibition of recombinant rabbit GSK-3beta assessed as decrease in PPI-2 phosphorylation in presence of 33P-ATP after 90 mins by topcount scintillation counting; design: species or system Oryctolagus cuniculus
[3] = molecular target: T2, Glycogen synthase kinase-3 alpha (Homo sapiens, UniProt P49840); assay: Inhibition of human GSK3alpha
T2 sequence (P49840 whole entry): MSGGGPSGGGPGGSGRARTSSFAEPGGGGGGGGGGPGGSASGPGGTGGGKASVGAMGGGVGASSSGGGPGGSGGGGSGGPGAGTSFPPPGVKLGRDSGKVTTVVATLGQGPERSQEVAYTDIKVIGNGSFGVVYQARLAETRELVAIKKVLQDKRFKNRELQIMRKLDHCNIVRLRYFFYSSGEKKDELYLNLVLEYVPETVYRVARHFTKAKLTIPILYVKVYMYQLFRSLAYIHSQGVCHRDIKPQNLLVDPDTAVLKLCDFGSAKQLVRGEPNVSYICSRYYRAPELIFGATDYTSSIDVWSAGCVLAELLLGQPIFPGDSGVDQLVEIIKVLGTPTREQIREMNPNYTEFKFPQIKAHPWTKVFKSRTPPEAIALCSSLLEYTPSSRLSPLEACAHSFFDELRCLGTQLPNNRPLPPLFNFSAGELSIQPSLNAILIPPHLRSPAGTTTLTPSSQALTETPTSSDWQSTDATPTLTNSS

HT-29 = assay: Cytotoxicity against human HT-29 cells at 20 uM after 2 days by MTT assay relative to control; format: functional
[4] = molecular target: T1, Glycogen synthase kinase-3 beta; assay: Inhibition of GSK3beta (unknown origin) at 20 uM using FITC-RRRRAAEELDSRAGS(PO4)PQL as substrate after 10 mins by capillary electrophoresis relative to control
Target sequence in this assay (P49841 whole entry, looked up): as the sequence (P49841 whole entry) above

[5] = molecular target: Glycogen synthase kinase 3 beta (Sus scrofa, UniProt B2LUN4); assay: Inhibition of pig brain GSK3beta using GS1 as substrate after 30 mins
Chain of Glycogen synthase kinase 3 beta (B2LUN4 whole entry): as the sequence (P49841 whole entry) above, with V40M, T59A, T392S, A400T, T402A, A411T counted along it

[6] = Inhibition of GSK-3beta (unknown origin)
Homo sapiens = organism: Homo sapiens; assay: Selectivity ratio of IC50 for PKCbeta2 (unknown origin) to IC50 for GSK3-beta (unknown origin)
[7] = Oral bioavailability in Zucker fa/fa rat at 10 mg/kg; format: ADME, organism-based; conditions: in vivo
[8] = molecular target: T1, Glycogen synthase kinase-3 beta; assay: Inhibition of human GSK3beta using YRRAAVPPSPSLSRHSSPHQS(PO4)EDEEE-NH2 as substrate after 60 mins in presence of [33gammaP]-ATP by topcount method
Target sequence in this assay (P49841 whole entry): as the sequence (P49841 whole entry) above

[9] = molecular target: T2, Glycogen synthase kinase-3 alpha; assay: Inhibition of human GSK3alpha using biotin-Ahx-AAAKRREILSRRP-S(PO3)YR-amide as substrate after 40 mins in presence of [33gammaP]-ATP by SPA
MCF7 = assay: Cytotoxicity against human MCF7 cells assessed as reduction in cell viability after 68 hrs by MTT assay; format: functional, cell-based; conditions: MCF7, 68 h

## CC(C)OC1Cn2cc(C3=C(c4cnc5ccccn45)C(=O)NC3=O)c3cccc(c32)CN1C=O (configuration not stated)
[1]
  IC50: 1.3 nM

## O=C1NC(=O)C2=C1c1cn(c3ncccc13)CCCCC(O)CCCCn1cc2c2cccnc21
[2]
  IC50: 11 nM

## CCCCC(=O)Nc1n[nH]c2nnc(-c3ccccc3)cc12
[3]
  IC50: 4 nM

## O=C1Nc2ccccc2C1=Cc1cc(CN2CCN(c3ccccc3Cl)CC2)on1
HT-29
  Activity: 78%
[4]
  inhibition: 72%

## CCOC(=O)c1c2[nH]c3ccccc3c2c(-c2ccc(NC(=O)CCN(C)C)cc2)c2c(=O)[nH][s+]([O-])c12 (configuration not stated)
[5]
  IC50: 2800 nM

## O=CN1Cc2cccc3c(C4=C(c5cnc6ccccn56)C(=O)NC4=O)cn(c23)CC1N1CCCCC1 (configuration not stated)
[1]
  IC50: 2 nM

## O=CN1Cc2cccc3c(C4=C(c5cnc6ccccn56)C(=O)NC4=O)cn(c23)CC1N1CCOCC1 (configuration not stated)
[1]
  IC50: 1.3 nM

## COc1ccccc1C1=C(c2cn(CCCNC(=O)OC(C)(C)C)c3ncccc23)C(=O)NC1=O
[6]
  IC50: 7 nM
Homo sapiens
  Ratio IC50: 325

## O=C1NC(=O)C2=C1c1cn(c3ncccc13)CCOCCOCCOCCn1cc2c2cccnc21
[2]
  IC50: 17 nM

## CN(C)C1Cn2cc(C3=C(c4cnc5ccccn45)C(=O)NC3=O)c3cccc(c32)CN1C=O (configuration not stated)
[1]
  IC50: 1.6 nM

## O=C1NC(=O)C(c2cn(CCCO)c3ncccc23)=C1c1ncc(C(F)(F)F)cc1Cl
[6]
  IC50: 26 nM
Homo sapiens
  Ratio IC50: > 385

## Cc1ccc2ncc(C3=C(c4cn5c6c(cccc46)CN(C=O)C(N4CCCCC4)C5)C(=O)NC3=O)n2c1 (configuration not stated)
[1]
  IC50: 5.2 nM
[7]
  bioavailability: 45%

## CCNC(=O)c1nnn(-c2nonc2N)c1CN1CCCCC1
[8]
  IC50: 280 nM

## O=C1NC(=O)C(c2cn(CCCO)c3ncccc23)=C1c1cnccn1
[2]
  IC50: 25 nM

## Fc1ccc(/C=N/Nc2ncnc3c2cnn3-c2ccccc2)cc1
[9]
  IC50: 6.2 nM

## Oc1ccc2c(c1)OC[C@]1(O)Cc3cc(O)c(O)cc3[C@H]21 [BRAZILIN]
MCF7
  IC50: 7.23 µM

## O=CN1Cc2cc(F)cc3c(C4=C(c5cnc6ccccn56)C(=O)NC4=O)cn(c23)CC1N1CCCCC1 (configuration not stated)
[1]
  IC50: 1.1 nM
[7]
  bioavailability: 23%
